Data as given in patent publication US12173309B2, “Compounds for increasing genome editing efficiency” (Max-Planck-Gesellschaft zur Förderung der Wissenschaften …, priority 2017, dated 2024).
Entries after “also recorded” stand apart in the source; their conditions may differ.

How the values were obtained:
[1] = test system: 409-B2 iCRISPR Cas9D10A iPSCs; assay: Cell death by phase contrast light microscopy in first concentration screen; format: cell-based, human
From the text: FIGS. 3A-3D: First screen for solvent effect and influence of different small molecule concentrations on genome edit-ing of CALD1, KATNA1 and SLITRK1 with iCRISPR Cas9D10A. Shown are precise genome editing (PGE) and indels with green circles (triangles) or blue diamonds, respectively. Each symbol represents a technical replicate. The respective means are shown as a black line. Each skull indicates cell death of up to 20% determined by phase contrast light microscopy.

[2] = test system: 409-B2 iCRISPR-Cas9D10A iPSCs; assay: Precise genome editing (PGE) efficiency with iCRISPR Cas9D10A double nicking and ssODN donors, Illumina sequencing/CRISPResso; format: cell-based, human; details: for PGE increase (mean change vs control): 20 μM NU7026, 0.01 μM TSA, 0.5 μM MLN4924, 5 μM NSC 15520, CRISPY mix = all four; for effect on PGE frequency over CALD1, KATNA1 and SLITRK1 compared to controls: 1 μM NSC 19630, 20 μM AICAR, 1 μM RS-1, 1 μM Resveratrol, 1 μM SCR7, 5 μM L755507, 5 μM STL127685, 20 μM B02; for effect on PGE of further addition to the mix of NU7026, TSA and MLN4924: all loci, 5 μM NSC 15520, then 1 μM NSC 19630, 20 μM AICAR, 1 μM RS-1 (FIG. 5A); for effect on PGE efficiency with ssODN (discussion summary): nuclease not stated
Protocol: (§1) FIG. 1: Genome editing and analysis flowchart. iCRISPR 409-B2 iPSCs are treated with 2 μg/ml doxycycline at least for 2 days to induce Cas9 or Cas9D10A expression. Reverse transfection with RNAiMAX, gRNA (7.5 nM each), ssODN (10 nM) and the small molecules to be evaluated is carried out in a 96 well plate for 1 day. The amount of cells used gives ˜80% confluency. Cells are then expanded for 3 days with regular media change. After harvest follows DNA extraction, PCR amplification of targeted loci, Illumina sequencing and CRISPResso (Pinello et al. 2016) sequence analysis for amount of indels and precise genome editing.
(§2) Cells were incubated with media containing 2 μg/ml doxycycline (Clontech, 631311) 2 days prior to lipofection. Lipofection (reverse transfection) was done using the alt-CRISPR manufacturer's protocol (IDT) with a final concentration of 7.5 nM of each gRNA and 10 nM of the respective ssODN. In brief, 0.75 μl RNAiMAX (Invitrogen, 13778075) and the respective oligonucleotides were separately diluted in 25 μl OPTI-MEM (Gibco, 1985-062) each and incubated at room temperature for 5 min. Both dilutions were mixed to yield 50 μl of OPTI-MEM including RNAiMAX, gRNAs and ssODNs. The lipofection mix was incubated for 20-30 min at room temperature. During incubation cells were dissociated using EDTA for 5 min and counted using the Countess Automated Cell Counter (Invitrogen). The lipofection mix, 100 μl containing 25.000 dissociated cells in mTeSR1 supplemented with Y-27632, 2 μg/ml doxycycline and the respective small molecule(s) to be tested were throughoutly mixed and put in one well of a 96 well covered with Matrigel Matrix (Corning, 35248). Media was exchanged to regular mTeSR1 media after 24 hours.
(§3) Three days after lipofection cells were dissociated using Accutase (SIGMA, A6964), pelleted, and resuspended in 15 μl QuickExtract (Epicentre, QE0905T). Incubation at 65° C. for 10 min, 68° C. for 5 min and finally 98° C. for 5 min was performed to yield ssDNA as a PCR template. Primers for each targeted loci of CALD1, KATNA1 and SLITRK1 containing adapters for Illumina sequencing were ordered from IDT (Coralville, USA). PCR was done in a T100 Thermal Cycler (Bio-Rad) using the KAPA2G Robust PCR Kit (Peqlab, 07-KK5532-03) with supplied buffer B and 3 μl of cell extract in a total volume of 25 μl. The thermal cycling profile of the PCR was: 95° C. 3 min; 34×(95° 15 sec, 65° C. 15 sec, 72° C. 15 sec); 72° C. 60 sec. P5 and P7 Illumina adapters with sample specific indices were added in a second PCR reaction (Kircher et al. 2012) using Phusion HF MasterMix (Thermo Scientific, F-531L) and 0.3 μl of the first PCR product. The thermal cycling profile of the PCR was: 98° C. 30 sec; 25× (98° 10 sec, 58° C. 10 sec, 72° C. 20 sec); 72° C. 5 min. Amplifications were verified by size separating agarose gel electrophoresis using EX gels (Invitrogen, G4010-11). The indexed amplicons were purified using Solid Phase Reversible Immobilization (SPRI) beads (Meyer, Kircher 2010). Double-indexed libraries were sequenced on a MiSeq (Illumina) giving paired-end sequences of 2×150 bp. After base calling using Bustard (Illumina) adapters were trimmed using leeHom (Renaud et al. 2014).
(§4) CRISPresso (Pinello et al. 2016) was used to analyse sequencing data from CRISPR genome editing experiments for percentage of wildtype, targeted nucleotide substitutions (TNS), indels and mix of TNS and indels. Parameters used for analysis were ‘-w 20’, ‘--min_identity_score 70’ and ‘--ignore_substitutions’ (analysis was restricted to amplicons with a minimum of 70% similarity to the wildtype sequence and to a window of 20 bp from each gRNA; substitutions were ignored, as sequencing errors would be falsely characterized as NHEJ-events). Sequencing data from colonies after single cell seeding (FIGS. 3B and C) was further analyzed by evaluating the actual read sequences using SAMtools. Clonal colonies were differentiated from mixed colonies using sequence read proportions. […]

[3] = test system: 409-B2 iCRISPR-Cas9 iPSCs; assay: PGE efficiency with iCRISPR Cas9 and ssODN donors; format: cell-based, human; details: 0.01 μM TSA, 0.5 μM MLN4924, 1 μM NSC 19630, 20 μM AICAR, 1 μM RS-1, 1 μM Resveratrol, 1 μM SCR7, 5 μM L755507, 5 μM STL127685, 20 μM B02
Protocol: as §1, §2, §3, §4

[4] = test system: porcine fetal fibroblasts; details: literature; ssODN donors; cited from earlier work
[5] = test system: HEK293A cells; details: literature; RS-1 with dsODN donors, control 3.5%; cited from earlier work
[6] = test system: U2OS cells; details: literature; dsODN donors, control 1.9%; cited from earlier work
[7] = test system: rabbit embryos; details: literature; RS-1 with dsODN donors, control 4.4%; cited from earlier work
[8] = test system: mouse ESCs; details: literature; dsODN donors, control 17.7%; cited from earlier work
[9] = molecular target: human LIG4 (Homo sapiens, UniProt P49917); details: literature (Greco et al. 2016); cited from earlier work
[10] = test system: human stem cells; details: literature; cited from earlier work

human LIG4, sequence (P49917 whole entry): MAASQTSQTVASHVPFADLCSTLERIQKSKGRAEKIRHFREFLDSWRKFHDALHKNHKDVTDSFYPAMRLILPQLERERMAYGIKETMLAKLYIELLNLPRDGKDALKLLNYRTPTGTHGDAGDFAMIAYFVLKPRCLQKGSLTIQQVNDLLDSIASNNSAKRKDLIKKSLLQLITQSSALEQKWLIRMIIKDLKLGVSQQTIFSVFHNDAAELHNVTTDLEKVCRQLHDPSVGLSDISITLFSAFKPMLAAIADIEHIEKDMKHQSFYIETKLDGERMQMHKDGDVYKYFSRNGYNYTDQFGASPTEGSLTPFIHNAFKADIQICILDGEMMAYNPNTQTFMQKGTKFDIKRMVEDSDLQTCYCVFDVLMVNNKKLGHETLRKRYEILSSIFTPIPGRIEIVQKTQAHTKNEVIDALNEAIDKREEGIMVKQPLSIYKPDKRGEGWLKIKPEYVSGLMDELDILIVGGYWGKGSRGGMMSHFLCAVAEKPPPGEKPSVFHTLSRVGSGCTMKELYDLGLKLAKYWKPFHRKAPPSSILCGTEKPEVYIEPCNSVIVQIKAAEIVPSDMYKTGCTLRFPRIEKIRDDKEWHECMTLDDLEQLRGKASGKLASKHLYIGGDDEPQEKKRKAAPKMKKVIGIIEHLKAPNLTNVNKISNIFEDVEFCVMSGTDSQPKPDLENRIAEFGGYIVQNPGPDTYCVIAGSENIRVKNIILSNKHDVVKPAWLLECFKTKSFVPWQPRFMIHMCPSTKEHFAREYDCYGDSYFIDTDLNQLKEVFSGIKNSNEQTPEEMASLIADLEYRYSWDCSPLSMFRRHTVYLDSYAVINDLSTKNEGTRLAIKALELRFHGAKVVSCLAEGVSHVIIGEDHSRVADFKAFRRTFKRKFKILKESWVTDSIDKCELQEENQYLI
human LIG4, sequence (Q13426 whole entry partner): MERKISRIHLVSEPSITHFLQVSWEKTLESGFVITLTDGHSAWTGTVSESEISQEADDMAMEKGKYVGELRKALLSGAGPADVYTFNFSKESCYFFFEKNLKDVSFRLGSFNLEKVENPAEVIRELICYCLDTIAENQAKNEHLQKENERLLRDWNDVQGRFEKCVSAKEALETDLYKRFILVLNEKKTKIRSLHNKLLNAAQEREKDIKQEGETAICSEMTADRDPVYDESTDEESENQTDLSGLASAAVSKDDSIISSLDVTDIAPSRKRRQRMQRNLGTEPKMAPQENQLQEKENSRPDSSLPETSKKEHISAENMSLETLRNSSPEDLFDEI

| Structure (SMILES) | effect on PGE frequency over CALD1, KATNA1 and SLITRK1 compared to controls [3] | effect on PGE frequency over CALD1, KATNA1 and SLITRK1 compared to controls ([2]; Cas9D10A) | PGE [5] | effect on PGE efficiency with ssODN (discussion summary) [2] | further results |
| --- | --- | --- | --- | --- | --- |
| CC(/C=C/C(=O)NO)=C\[C@@H](C)C(=O)c1ccc(N(C)C)cc1 [TSA, Trichostatin A] | no enhancing effect |  |  |  | cell death ([1]; 0.1 μM): All cells died; cell death ([1]; 1 μM): All cells died; PGE increase (mean change vs control) ([2]; CALD1, Cas9D10A): 1.5 fold; higher PGE frequency than without the molecules ([2]; Cas9D10A, pooled across CALD1, KATNA1, SLITRK1 (FIG. 5A), p<0.001): 1.8 fold; PGE increase (mean change vs control) ([2]; KATNA1, Cas9D10A): 2.2 fold; PGE increase (mean change vs control) ([2]; SLITRK1, Cas9D10A): 1.8 fold |
| Oc1ccc(C=Cc2cc(O)cc(O)c2)cc1 [Resveratrol] | no effect or a diminishing effect | no clear effect |  |  |  |
| O=C(Nc1ccc(Br)cc1)c1ccc(Br)c(S(=O)(=O)NCc2ccccc2)c1 [RS-1] | no effect or a diminishing effect; also recorded: no clear effect | no clear effect | 21% | no beneficial effect | effect on PGE efficiency [4]: No effect; PGE [6]: 2.4%; effect on PGE of further addition to the mix of NU7026, TSA and MLN4924 ([2]; Cas9D10A): no measurable effect; PGE [7]: 26.1% |
| CCCCCCNC(=O)Nc1ccc(S(=O)(=O)Nc2ccc(CCNC[C@H](O)COc3ccc(O)cc3)cc2)cc1 [L755507] | no effect or a diminishing effect; also recorded: no clear effect | no clear effect | did not find significant stimulation |  | PGE [8]: 33.3% |
| O=c1[nH]c(=S)[nH]c(N=Cc2ccccc2)c1N=Cc1ccccc1 [SCR7] | no effect or a diminishing effect; also recorded: no clear effect | no clear effect | marginal but significant increase |  | inhibition of human LIG4 [9]: neither selective nor potent; effect on PGE [10]: no significant effect; PGE [7]: no significant effect |
| O=c1c2ccccc2nc(/C=C/c2cccnc2)n1Cc1ccccc1 [B02] | halved | halved |  | halved |  |
| NC(=O)c1ncn([C@@H]2O[C@H](CO)[C@@H](O)[C@H]2O)c1N [AICAR] | no effect or a diminishing effect | no clear effect |  | no effect | effect on PGE of further addition to the mix of NU7026, TSA and MLN4924 ([2]; Cas9D10A): no measurable effect |
